{
  "source": "patent US20040043420A1",
  "about": "“Method of identifying conformation-sensitive binding peptides and uses thereof” (priority 2003, published 2004)",
  "key": {"androgen receptor [1]": {"target": "T1, androgen receptor (Homo sapiens, UniProt P10275)", "T1 sequence (P10275 1-920)": "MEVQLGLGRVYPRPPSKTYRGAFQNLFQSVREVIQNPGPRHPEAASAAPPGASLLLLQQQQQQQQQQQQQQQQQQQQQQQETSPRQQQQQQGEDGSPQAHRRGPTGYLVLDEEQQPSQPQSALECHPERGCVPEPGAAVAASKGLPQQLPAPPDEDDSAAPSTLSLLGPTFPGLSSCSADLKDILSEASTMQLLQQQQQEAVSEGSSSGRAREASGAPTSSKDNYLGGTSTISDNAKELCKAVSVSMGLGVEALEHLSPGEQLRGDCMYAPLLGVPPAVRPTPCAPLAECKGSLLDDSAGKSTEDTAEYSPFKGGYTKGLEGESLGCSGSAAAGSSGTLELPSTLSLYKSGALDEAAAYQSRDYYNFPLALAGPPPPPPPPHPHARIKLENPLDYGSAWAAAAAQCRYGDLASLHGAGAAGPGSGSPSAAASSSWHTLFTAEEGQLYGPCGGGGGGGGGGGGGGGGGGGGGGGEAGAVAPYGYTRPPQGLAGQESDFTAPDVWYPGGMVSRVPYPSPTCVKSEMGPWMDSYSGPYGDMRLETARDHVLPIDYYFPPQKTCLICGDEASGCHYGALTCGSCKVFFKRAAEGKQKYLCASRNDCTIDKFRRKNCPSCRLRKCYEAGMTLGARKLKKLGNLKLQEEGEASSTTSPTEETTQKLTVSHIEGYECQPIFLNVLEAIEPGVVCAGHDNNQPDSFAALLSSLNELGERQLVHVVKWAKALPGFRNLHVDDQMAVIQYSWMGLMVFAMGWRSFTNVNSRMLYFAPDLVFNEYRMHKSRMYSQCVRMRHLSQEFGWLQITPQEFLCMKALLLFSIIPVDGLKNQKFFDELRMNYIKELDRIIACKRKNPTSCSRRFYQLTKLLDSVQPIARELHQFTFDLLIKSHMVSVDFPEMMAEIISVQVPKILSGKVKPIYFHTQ", "experiment": "Yeast two-hybrid screening of unbiased X15 peptide library, ligand-induced β-galactosidase activity (FIG. 3, Table 503)", "format": "cell-based", "parameters": "expressed in transfected cells; host or cells: Saccharomyces cerevisiae PJ69-4α", "conditions": "for Yeast Specificity Graph (FIG. 3): CPA: ligand CPA; for Yeast Specificity Graph (FIG. 3): DHT: ligand DHT; for Yeast Specificity Graph (FIG. 3): RU: ligand RU; for Yeast Specificity Graph (FIG. 3): No Lig: no ligand", "description": "Our library contained predominantly 15 random amino acid residues/peptide in order to identify motifs that might interact with nuclear receptor domains. If ligand is provided to the cells, one can screen for peptides that interact with the ligand-bound receptor. […] Included at the ends of the oligonucleotide were the synthetic restriction endonuclease cleavage sites, EcoRI or Mfe I (5′ end) and Sal I (3′ end). Oligonucleotides were annealed, then cleaved with excess restriction endonuclease and purified on agarose gels. The purified set of oligonucleotides was subcloned as an in-frame carboxy-terminal fusion to a Gal4 DNA binding domain (plasmid vector pMA424 derivative). […] The transformation mix was divided and grown on plates of selective media containing ligand and 25 mM 3-aminotriazole at 30° C. until colonies appeared in 3-7 days. […] Dihydrotestosterone (DHT) and medroxyprogesterone (MPA) were added to the media at 100 nM to identify peptides that interact with the receptor in the presence of ligand. After colonies appeared they were picked and dispersed into individual wells of a 96-well plate containing rich media (YPD).\nTo determine ligand dependence, two microliter aliquots were removed from the cell suspension, and arrayed and spotted onto each of two rectangular agar plates, one with 100 nM ligand and one without ligand. Growth was monitored daily.\nA secondary test of ligand dependent activation was performed using the integrated GAL4-driven lacZ gene. Cell suspensions of the initial positive clones were diluted 20-fold into 20 microliters of rich media in a microplate and grown overnight at 30° C. in the presence and absence of ligand. Microplates were centrifuged for 5 minutes at 3000 rpm in a swinging table top centrifuge to pellet the yeast cells, and the overlying media was aspirated. […] An OD650 density determination was made to normalize the β-galactosidase activity. β-galactosidase activity was monitored following the addition of buffer containing chlorophenol red-1-galactopyranoside (CPRG) (Boehringer Mannheim) substrate at a final concentration of 0.5 mM. […] The maximum slope value of this measurement was normalized to cell density from the initial OD650 value, and the relative ligand dependence of β-galactosidase was determined by comparing the values plus and minus ligand.\nIn FIG. 3, all of these ligands were tested. The plasmids from true positives were extracted using standard yeast extraction protocols and re-transformed to verify the positive phenotype."}, "androgen receptor [2]": {"target": "T1, androgen receptor", "format": "cell-based", "parameters": "expressed in transfected cells", "description": "We used a mammalian two-hybrid system to determine specificities of the AR-binding peptides previously identified, through screening of the aforementioned yeast library, as ligand-dependent in their binding activity. Ligand was provided to the cells so the interaction could be observed. The human hepatoma cell line, Huh-7, was used as the recipient of two-hybrid vectors, pM and pVP16 (Clontech) (FIGS. 6A and 6B), containing fusions with peptide and AR, respectively. According to Clontech literature, the Clontech vectors pM and VP16 generate fusions of protein X with the GAL4 DNA-BD and fusions of protein Y with the VP16AD, in the Mammalian MM Two-Hybrid Assay Kit (#K1602-1). (Note: pM and VP16 contain unique cloning sites in the same order and reading frame as the DNA-BD and AD, respectively, vectors in the yeast […] Two-Hybrid Systems.) A third vector, pG5CAT, provides a CAT reporter gene under the control of a GAL4-responsive element and minimal promoter of the adenovirus E1b. The three vectors are cotransfected into any suitable mammalian host cell line by standard methods. The interaction between proteins X and Y is then assayed by measuring CAT gene expression by any standard method. In the absence-of activation (i.e., no protein-protein interaction), the minimal E1b promoter will not express significant levels of CAT.\nBriefly, cells are seeded in a 24-well culture plate to a density of 50-80% confluence in phenol red-free media containing charcoal-dextran stripped fetal bovine serum (10%). Following incubation overnight, cells are transfected with plasmids pM-peptide, pVP16-AR, pCMV-b-gal, and p5XGAL-Luc3 DNAs using lipofectamine 2000 (LifeTech) according to the manufacturer's protocol. Transfections are allowed to proceed for 6 hours and the transfection media is aspirated and replaced with recovery media for 18 hours. Following the recovery period, cells are treated with compound for 24 hours prior to cell harvesting. Cells are washed with PBS and then lysed using the lysis buffer from the Galacto-Light Plus β-galactosidase assay kit (Tropix). Assays for luciferase and β-galactosidase were performed as described by the manufacturer. Peptide/AR interactions are described in terms of the luciferase activity normalized for transfection efficiency using β-galactosidase activity (see FIG. 4A). Two types of useful information arose from these methods: 1) we generated a panel of useful peptide probes to analyze the conformational state of AR, and 2) we “fingerprinted” AR modulators with respect to AR conformation (FIG. 4B). […] FIG. 4B is the converse of 4A. It compares the ability of six ligands (DHT, MPA, CYP, RU486, FLUT and DHEAs to interact with AR in the presence of each of four peptides (D30, 5G11, B8H3 and […]). Thus, it is a “fingerprint” of each of the six ligands using a four peptide panel. (Note that “1269” and D30″ refer to the same peptide.)"}, "ER α": {"target": "T2, ER α (UniProt P03372 1-595, limits assumed)", "T2 construct": "also called estrogen receptor α; ERα-ERE", "T2 sequence (looked up)": "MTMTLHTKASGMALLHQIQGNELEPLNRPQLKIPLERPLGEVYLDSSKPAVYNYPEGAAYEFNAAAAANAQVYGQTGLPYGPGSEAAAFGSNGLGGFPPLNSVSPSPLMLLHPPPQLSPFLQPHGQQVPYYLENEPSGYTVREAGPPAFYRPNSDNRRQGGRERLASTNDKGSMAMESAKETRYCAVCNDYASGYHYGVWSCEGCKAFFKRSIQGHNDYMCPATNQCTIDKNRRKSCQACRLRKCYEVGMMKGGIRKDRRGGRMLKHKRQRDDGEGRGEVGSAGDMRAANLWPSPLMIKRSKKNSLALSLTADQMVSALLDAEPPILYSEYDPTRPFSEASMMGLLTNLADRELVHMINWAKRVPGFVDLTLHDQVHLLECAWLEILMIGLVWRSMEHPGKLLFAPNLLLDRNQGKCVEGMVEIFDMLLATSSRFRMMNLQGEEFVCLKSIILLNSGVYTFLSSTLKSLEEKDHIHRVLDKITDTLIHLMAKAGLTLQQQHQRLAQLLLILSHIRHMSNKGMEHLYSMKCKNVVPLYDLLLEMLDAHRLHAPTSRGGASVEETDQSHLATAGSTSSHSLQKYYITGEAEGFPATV", "experiment": "phage isolated on ERα-ERE; Estradiol"}, "[3]": {"target": "T3, Gal4 transcriptional activation domain (AD) fused in frame with AR (yeast, UniProt P10275 1-920, limits assumed)", "T3 sequence (looked up)": "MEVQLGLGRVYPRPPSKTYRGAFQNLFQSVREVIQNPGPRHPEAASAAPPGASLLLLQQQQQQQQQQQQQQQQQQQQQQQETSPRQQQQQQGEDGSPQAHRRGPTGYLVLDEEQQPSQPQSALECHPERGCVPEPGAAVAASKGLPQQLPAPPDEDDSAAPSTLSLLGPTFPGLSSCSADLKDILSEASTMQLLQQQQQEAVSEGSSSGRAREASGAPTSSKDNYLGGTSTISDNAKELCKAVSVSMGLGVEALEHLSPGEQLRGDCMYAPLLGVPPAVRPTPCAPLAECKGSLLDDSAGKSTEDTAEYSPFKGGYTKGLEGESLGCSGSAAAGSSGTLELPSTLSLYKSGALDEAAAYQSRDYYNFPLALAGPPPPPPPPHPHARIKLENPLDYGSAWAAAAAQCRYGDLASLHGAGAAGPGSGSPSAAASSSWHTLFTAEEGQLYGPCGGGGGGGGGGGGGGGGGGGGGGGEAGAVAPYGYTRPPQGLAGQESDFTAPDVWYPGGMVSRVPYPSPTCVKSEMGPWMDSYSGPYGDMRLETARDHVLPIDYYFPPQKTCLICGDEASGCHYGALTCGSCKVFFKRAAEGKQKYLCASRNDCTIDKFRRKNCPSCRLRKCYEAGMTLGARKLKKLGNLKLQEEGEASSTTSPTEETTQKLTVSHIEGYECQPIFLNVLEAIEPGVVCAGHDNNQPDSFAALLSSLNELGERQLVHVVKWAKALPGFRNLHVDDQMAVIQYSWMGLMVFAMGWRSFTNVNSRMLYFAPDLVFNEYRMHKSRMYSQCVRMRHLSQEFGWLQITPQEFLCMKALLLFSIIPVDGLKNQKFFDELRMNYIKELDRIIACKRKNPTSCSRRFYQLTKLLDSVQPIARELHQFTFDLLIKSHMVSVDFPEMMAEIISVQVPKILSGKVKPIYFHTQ", "experiment": "cell-based or functional assay"}},
  "data": [
    {"molecule": "EFRFPFHEMVREWESMGLERVRYAEP [M4D1]", "values": [
      {"measurement": "Yeast Specificity Graph (FIG. 3): CPA", "setting": "androgen receptor [1]", "result": "−0.03955"},
      {"measurement": "Yeast Specificity Graph (FIG. 3): DHT", "setting": "androgen receptor [1]", "result": 0.3948},
      {"measurement": "Yeast Specificity Graph (FIG. 3): MPA", "setting": "androgen receptor [1]; ligand MPA", "result": 1.698},
      {"measurement": "Yeast Specificity Graph (FIG. 3): RU", "setting": "androgen receptor [1]", "result": 0.1},
      {"measurement": "Yeast Specificity Graph (FIG. 3): Test", "setting": "androgen receptor [1]; ligand Test", "result": 0.1337},
      {"measurement": "Yeast Specificity Graph (FIG. 3): No Lig", "setting": "androgen receptor [1]", "result": 0}
    ]},
    {"molecule": "EFHSRLRVEVVSWGIGSTCSQANSGRISYDL* [B8H3]", "values": [
      {"measurement": "Fold induction", "setting": "androgen receptor [1]", "result": 22},
      {"measurement": "Yeast Specificity Graph (FIG. 3): CPA", "setting": "androgen receptor [1]", "result": 0.3927},
      {"measurement": "Yeast Specificity Graph (FIG. 3): DHT", "setting": "androgen receptor [1]", "result": 3.807},
      {"measurement": "Yeast Specificity Graph (FIG. 3): RU", "setting": "androgen receptor [1]", "result": "−0.0"},
      {"measurement": "Yeast Specificity Graph (FIG. 3): No Lig", "setting": "androgen receptor [1]", "result": 0.1737},
      {"measurement": "Mammalian Cell Specificity Graph (FIG. 4): CYP.", "setting": "androgen receptor [2]", "result": 10.47, "unit": "Relative Light Units"},
      {"measurement": "Mammalian Cell Specificity Graph (FIG. 4): DHT", "setting": "androgen receptor [2]; ligand DHT", "result": 11.6, "unit": "Relative Light Units"},
      {"measurement": "Mammalian Cell Specificity Graph (FIG. 4): MPA", "setting": "androgen receptor [2]; ligand MPA", "result": 11.33, "unit": "Relative Light Units"},
      {"measurement": "Mammalian Cell Specificity Graph (FIG. 4): RU486", "setting": "androgen receptor [2]; ligand RU486", "result": 3.879, "unit": "Relative Light Units"},
      {"measurement": "Mammalian Cell Specificity Graph (FIG. 4): no compound", "setting": "androgen receptor [2]; no compound", "result": 0.1316, "unit": "Relative Light Units"}
    ]},
    {"molecule": "HSHNHHSPWLFRLLGG", "note": "[E1-1]", "values": [
      {"measurement": "binding result", "setting": "ER α", "result": "binds"}
    ]},
    {"molecule": "HSHPHHSHLLYKLMGG", "note": "[E1-3]", "values": [
      {"measurement": "binding result", "setting": "ER α", "result": "binds"}
    ]},
    {"molecule": "HSHPLPPLLSRLLTGG", "note": "[E1-4]", "values": [
      {"measurement": "binding result", "setting": "ER α", "result": "binds"}
    ]},
    {"molecule": "B23H12 (peptide) MKLLSSIEQACDICRLKKLKCSKEKPKCAKCLKNNWECRYSPKTKRSPLTRAHLTEVESRLERLEQLFLLIFPREDLDMILKMDSLQDIKALLTGLFVQDNVNKDAVTDRLASVETDMPLTLRQHRISATSSSEESSNKGQRQLTVSEFPELLAMTRWGRHAALLEPQRLPPPRTTTQPQTEFERMFFFTRPMRTTGLLDLQPS", "values": [
      {"measurement": "β-galactosidase activity (yeast two-hybrid), MPA", "setting": "[3]", "result": 1.31},
      {"measurement": "β-galactosidase activity (yeast two-hybrid), Test", "setting": "[3]", "result": 2.44}
    ]}
  ]
}
